Reference: article PMC2903749 (ACS medicinal chemistry letters, 2010)
Read-outs that look alike come from different tables or passages of the source.

Assays:
proline racemase = conditions: cited from earlier work
Glutamate racemase (GR) = Glutamate racemase (GR) (Bacillus subtilis, UniProt P94556); assay: biochemical
Sequence of Glutamate racemase (GR) (P94556 whole entry): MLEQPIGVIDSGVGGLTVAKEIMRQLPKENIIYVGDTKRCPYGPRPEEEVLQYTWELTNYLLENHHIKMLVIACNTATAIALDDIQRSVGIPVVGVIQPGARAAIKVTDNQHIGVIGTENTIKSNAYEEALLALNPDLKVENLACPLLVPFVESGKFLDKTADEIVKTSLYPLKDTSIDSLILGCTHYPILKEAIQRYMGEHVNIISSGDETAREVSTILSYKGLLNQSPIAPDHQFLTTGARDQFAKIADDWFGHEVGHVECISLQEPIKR

## O=C(O)c1ccc[nH]1 [PYC, pyrrole-2-carboxylic acid]
Proline racemase; read-out: Ki1, first of two binding states
  Ki: 4.6 µM
Proline racemase; read-out: Ki2, second of two binding states
  Ki: 30 µM

## NC(=O)CC[C@H](N)C(=O)O [glutamine]
Glutamate racemase (GR)
  Ki: 50000 µM
